Test results from patent US20230027066A1 (Urovant Sciences GmbH, priority 2019, published 2023).

Tested on: men and women with overactive bladder
Test: Phase 3 study of vibegron 75 mg vs placebo and tolterodine ER 4 mg, 12 weeks, efficacy (voiding and urine volume diary)
Assay type: in vivo, human
Settings: for Patients with at Least 75% Reduction in Total Incontinence, Adjusted (%) / Patients with at Least 75% Reduction in Total Incontinence, Adjusted n / Patients with at Least 75% Reduction in Total Incontinence, Unadjusted (%) / Patients with at Least 75% Reduction in Total Incontinence, Unadjusted n / Total Incontinence 75% responders, Active - Placebo CMH Difference: FAS-I
Protocol: Enrollment of patients included individuals with OAB Wet (those with UUI, the involuntary loss of urine accompanied by urgency) and OAB Dry (those without UUI). A total of 1,518 patients were randomized across 215 study sites into one of three groups for a 12-week treatment period.
The study consisted of a Screening Period (1 to 5 weeks), a single-blind Run-in Period (2 weeks), a randomized double-blind Treatment Period (12 weeks), and a Follow-up Period (4 weeks).
Tolterodine ER 4 mg was the active control. […] Between the Baseline and Week 12 Visits, patients had study assessments at Week 4 and Week 8.
The Patient Voiding Diary was used by participants (via the eDiary or paper Diary) to record the frequency of daily OAB symptoms including all micturitions, urgency, incontinence, and main reason for incontinence by selecting the respective box for each symptom occurring during the course of a given day and night.
Urine volume data were collected separately by patients using the Urine Volume component of the eDiary, or the paper Urine Volume Chart. The Urine Volume Chart is a tool used in clinical practice and clinical investigation to assess voiding functions over a 24-hour period and is regarded as a useful instrument in the investigation of patients with voiding symptoms. Urine volume may be collected during any one (1) of the 7 Diary Days prior to the visit, and it should be recorded for ˜24 hours starting from the time the patient gets up for the day and continues until the time the patient gets up for the day on the next day.
For the purpose of this study, the number of micturitions was defined as the number of times a patient has voided in the toilet as indicated on the Patient Voiding Diary. Average daily micturitions were calculated using the daily entries in the Patient Voiding Diary, which was completed over the 7 days prior to each study visit. Average daily number of micturitions were calculated as the total number of micturitions that occurred on a Complete Diary Day divided by the number of Complete Diary Days in the Patient Voiding Diary. A complete diary day required confirmation by the patient in the Patient Voiding Diary that all voids and leakages had been recorded for the diary day. Baseline was defined as the average number of micturitions occurring during the last evaluable diary prior to the Baseline Visit.
The number of UUI episodes was defined as the number of times a patient had checked “urge” as the reason for accidental urine leakage. Average daily UUI episodes at each study visit were calculated in the same manner as described above for the micturition endpoint. The UUI endpoint were analyzed using only OAB Wet patients.
For the analysis of the co-primary endpoints (change from baseline in average number of daily micturitions at Week 12 and change from baseline in average number of daily urge urinary incontinence episodes at Week 12, and placebo adjustment of each), a mixed model for repeated measure (MMRM) with restricted maximum likelihood estimation was used. This model corrects for dropout and accounts for the fact that measurements taken on the same patient over time tend to be correlated by using all available information on patients within the same covariate set to derive an estimate of the treatment effect for a dropout-free population. The analysis model for each efficacy endpoint includes terms for treatment, visit, OAB Type (Wet vs Dry), Sex (Female vs Male), Region (US vs Rest of World), baseline score, and interaction of visit by treatment.
Primary inferences were drawn from treatment differences for the changes from baseline derived from the MMRM models at Week 12. As part of secondary objectives, the treatment differences for each post baseline visit were also derived using the same MMRM model. […]

[1] = Week 12, events of Events/Censored
[2] = Week 12, subpopulation Age ≥65 years
[3] = vibegron 75 mg or tolterodine ER 4 mg
[4] = vibegron 75 mg or tolterodine ER 4 mg once daily
[5] = vibegron 75 mg or tolterodine ER 4 mg once daily, OAB Wet
[6] = vibegron 75 mg or tolterodine ER 4 mg, OAB Wet

Cc1ccc(O)c([C@H](CCN(C(C)C)C(C)C)c2ccccc2)c1 [Tolterodine ER, tolterodine, reference compound]
Micturitions, Week 12 LS Mean Change from Baseline (Placebo-Adjusted) (Week 12, co-primary endpoint): −0.3
UUI Episodes, Week 12 LS Mean Change from Baseline (Placebo-Adjusted) (Week 12, co-primary endpoint): −0.4
First 50% Reduction in Urgency Episodes, Events [1]: 164/253
First 100% Reduction in UUI Episodes, Events [1]: 74/245
Total Incontinence Episodes, Week 12 LS Mean Change from Baseline (Placebo-Adjusted) (Week 12, secondary endpoint): −0.5
Urgency Episodes, Week 12 LS Mean Change from Baseline (Placebo-Adjusted) (Week 12, secondary endpoint): −0.4
Micturitions, change at Week 12, mean (SD) [2]: −1.48 (2.15)
UUI Episodes, change at Week 12, mean (SD) [2]: −1.80 (2.41)
Daily Urgency, change at Week 12 (Week 12, subpopulation Age ≥65 years, posthoc analysis): −2.1
Micturitions: Week 12 CFB Mean (descriptive statistics) (Week 12, ≥65 yrs): −1.48
Patients with at Least 75% Reduction in Total Incontinence, Adjusted (%) (baseline to Week 2): 16.5%
Patients with at Least 75% Reduction in Total Incontinence, Adjusted n (baseline to Week 2): 53
Patients with at Least 75% Reduction in Total Incontinence, Unadjusted (%) (baseline to Week 2): 18.2%
Patients with at Least 75% Reduction in Total Incontinence, Unadjusted n (baseline to Week 2): 58
Total Incontinence 75% responders, Active - Placebo CMH Difference (baseline to Week 2): 3.6
Patients with at Least 75% Reduction in Total Incontinence, Adjusted (%) (baseline to Week 4): 23.5%
Patients with at Least 75% Reduction in Total Incontinence, Adjusted n (baseline to Week 4): 75
Patients with at Least 75% Reduction in Total Incontinence, Unadjusted (%) (baseline to Week 4): 28.2%
Patients with at Least 75% Reduction in Total Incontinence, Unadjusted n (baseline to Week 4): 90
Total Incontinence 75% responders, Active - Placebo CMH Difference (baseline to Week 4): 3.7
Patients with at Least 75% Reduction in Total Incontinence, Adjusted (%) (baseline to Week 8): 32.5%
Patients with at Least 75% Reduction in Total Incontinence, Adjusted n (baseline to Week 8): 104
Patients with at Least 75% Reduction in Total Incontinence, Unadjusted (%) (baseline to Week 8): 36.4%
Patients with at Least 75% Reduction in Total Incontinence, Unadjusted n (baseline to Week 8): 116
Total Incontinence 75% responders, Active - Placebo CMH Difference (baseline to Week 8): 5.1
Patients with at Least 75% Reduction in Total Incontinence, Adjusted (%) (baseline to Week 12): 39.9%
Patients with at Least 75% Reduction in Total Incontinence, Adjusted n (baseline to Week 12): 127
Patients with at Least 75% Reduction in Total Incontinence, Unadjusted (%) (baseline to Week 12): 45.1%
Patients with at Least 75% Reduction in Total Incontinence, Unadjusted n (baseline to Week 12): 144
Total Incontinence 75% responders, Active - Placebo CMH Difference (baseline to Week 12): 8.4
UUI, Week 12 LS mean change from baseline (placebo adjusted) (95% CI) (subgroup Age <65 years, vibegron 75 mg or tolterodine ER 4 mg): −0.2 (−0.6 to 0.2)
UUI, Week 12 LS mean change from baseline (placebo adjusted) (95% CI) (subgroup Age ≥65 years, vibegron 75 mg or tolterodine ER 4 mg): −0.6 (−1.1 to −0.1)
UUI, Week 12 LS mean change from baseline (placebo adjusted) (95% CI) (subgroup Age ≥75 years (posthoc analysis), vibegron 75 mg or tolterodine ER 4 mg): −1.6 (−2.5 to −0.7)
UUI, Week 12 LS mean change from baseline (placebo adjusted) (95% CI) (subgroup Females, vibegron 75 mg or tolterodine ER 4 mg): −0.4 (−0.7 to −0.1)
UUI, Week 12 LS mean change from baseline (placebo adjusted) (95% CI) (subgroup Males, vibegron 75 mg or tolterodine ER 4 mg): −0.5 (−1.4 to 0.4)
UUI, Week 12 LS mean change from baseline (placebo adjusted) (95% CI) (subgroup Non-White, vibegron 75 mg or tolterodine ER 4 mg): 0.1 (−0.6 to 0.7)
UUI, Week 12 LS mean change from baseline (placebo adjusted) (95% CI) (subgroup Region: Non-US, vibegron 75 mg or tolterodine ER 4 mg): −0.6 (−1.5 to 0.2)
UUI, Week 12 LS mean change from baseline (placebo adjusted) (95% CI) (subgroup Region: US, vibegron 75 mg or tolterodine ER 4 mg): −0.3 (−0.7 to 0.0)
UUI, Week 12 LS mean change from baseline (placebo adjusted) (95% CI) (subgroup White, vibegron 75 mg or tolterodine ER 4 mg): −0.5 (−0.8 to −0.2)
average volume voided, placebo-adjusted mean change from baseline, week 12 [3]: 13.3 mL
placebo-adjusted mean total daily incontinence episodes, week 12 [3]: −0.5 episodes
proportion of patients (UUI responders) with 75% or more reduction in daily UUI episodes, week 12 [3]: 42.2%
Micturitions, active-placebo LS mean difference, Week 2 [4]: −0.3
Micturitions, active-placebo LS mean difference, Week 4 [4]: −0.4
Micturitions, active-placebo LS mean difference, Week 8 [4]: −0.4
Micturitions, active-placebo LS mean difference, Week 12 [4]: −0.3
Micturitions, average daily number, Week 2 mean [4]: 10.40
Micturitions, average daily number, Week 4 mean [4]: 10.10
Micturitions, average daily number, Week 8 mean [4]: 9.80
Micturitions, average daily number, Week 12 mean [4]: 9.58
Micturitions, change from baseline LS mean, Week 2 [4]: −0.6
Micturitions, change from baseline LS mean, Week 4 [4]: −0.9
Micturitions, change from baseline LS mean, Week 8 [4]: −1.2
Micturitions, change from baseline LS mean, Week 12 [4]: −1.6
UUI episodes, active-placebo LS mean difference, Week 2 [5]: −0.4
UUI episodes, active-placebo LS mean difference, Week 4 [5]: −0.4
UUI episodes, active-placebo LS mean difference, Week 8 [5]: −0.4
UUI episodes, average daily number, Week 2 mean [5]: 2.24
UUI episodes, average daily number, Week 4 mean [5]: 2.06
UUI episodes, average daily number, Week 8 mean [5]: 1.74
UUI episodes, average daily number, Week 12 mean [5]: 1.55
UUI episodes, change from baseline LS mean, Week 2 [5]: −1.2
UUI episodes, change from baseline LS mean, Week 4 [5]: −1.4
UUI episodes, change from baseline LS mean, Week 8 [5]: −1.6
UUI episodes, change from baseline LS mean, Week 12 [5]: −1.8
Time to first 75% reduction in UUI episodes, hazard ratio compared to placebo (proportional hazards) (vibegron 75 mg or tolterodine ER 4 mg, Cox model with sex as covariate): 1.276
Estimated incidence of subjects with 75% decrease from baseline in UUI episodes, Week 2 [6]: 18.8
Estimated incidence of subjects with 75% decrease from baseline in UUI episodes, Week 4 [6]: 20.7
Estimated incidence of subjects with 75% decrease from baseline in UUI episodes, Week 8 [6]: 34.3
Estimated incidence of subjects with 75% decrease from baseline in UUI episodes, Week 12 [6]: 45.7
First 75% reduction in UUI episodes, Events/Censored, Week 2 [6]: 60/259
First 75% reduction in UUI episodes, Events/Censored, Week 4 [6]: 66/253
First 75% reduction in UUI episodes, Events/Censored, Week 8 [6]: 107/212
First 75% reduction in UUI episodes, Events/Censored, Week 12 [6]: 140/179
Overall time to first 75% decrease in UUI episodes, 25th percentile [6]: 4.1 weeks
Overall time to first 75% decrease in UUI episodes, 75th percentile [6]: 14.2 weeks
Overall time to first 75% decrease in UUI episodes, median (95% CI) [6]: 12.1 (8.6 to 12.3) weeks
Time to first 75% decrease in UUI episodes, Events/Censored (overall) [6]: 166/153
